Our source for the viability and Activity values is ChEMBL document CHEMBL5500376, “Novel pyxinol amide derivatives bearing an aliphatic heterocycle as P-glycoprotein modulators for overcoming multidrug resistance” (Eur J Med Chem, 2024).

A short description of experiment [1]: Cytotoxicity against human KBV cells assessed as cell survival at 10 uM measured after 72 hrs incubation by MTT assay relative to control. In kind it is functional. The conditions noted are these: read-out: Activity.
Experiment [2] can be described thus: Reversal of multi-drug resistance in human KVB cells assessed as increase in PTX-induced cytotoxicity by measuring cell survival at 5 uM measured after 72 hrs incubation in presence of 100 nM paclitaxel by MTT assay relative to control. It is filed as functional, KBV. In general terms: Formazan colour is commonly taken as a measure of viable cells.
A short description of experiment [3]: Reversal of multi-drug resistance in human KVB cells assessed as increase in PTX-induced cytotoxicity by measuring cell survival at 10 uM measured after 72 hrs incubation in presence of 100 nM paclitaxel by MTT assay relative to control. It is filed as functional, KBV.

`CC(=O)N1CCC[C@H]1C(=O)N[C@H]1CC[C@]2(C)[C@H]3C[C@@H](O)[C@@H]4[C@@H]([C@]5(C)CC[C@H](C(C)(C)O)O5)CC[C@@]4(C)[C@]3(C)CC[C@H]2C1(C)C`: the viability at 10 µM in experiment [1] was 97%. Also, the results for the Activity in experiment [2] and in experiment [3] were 80% and 63%, respectively.

On to `CC(C)(O)[C@H]1CC[C@@](C)([C@H]2CC[C@]3(C)[C@@H]2[C@H](O)C[C@@H]2[C@@]4(C)CC[C@H](NC(=O)[C@H]5CCC(=O)N5)C(C)(C)[C@@H]4CC[C@]23C)O1`, for which the viability at 10 µM in experiment [1] was 92%. Besides, the values for the Activity in experiment [2] and in experiment [3] were 93% and 87%, respectively.

Turning to `CC(C)(O)[C@H]1CC[C@@](C)([C@H]2CC[C@]3(C)[C@@H]2[C@H](O)C[C@@H]2[C@@]4(C)CC[C@H](NC(=O)[C@@H]5CCC(=O)N5)C(C)(C)[C@@H]4CC[C@]23C)O1`, in experiment [1], the viability at 10 µM is 100%. The Activity in experiment [2] is listed as 93%; in experiment [3], 87%.

Consider `CC(C)(O)[C@H]1CC[C@@](C)([C@H]2CC[C@]3(C)[C@@H]2[C@H](O)C[C@@H]2[C@@]4(C)CC[C@H](NC(=O)[C@H]5CCCNC5)C(C)(C)[C@@H]4CC[C@]23C)O1`, for which the viability at 10 µM in experiment [1] is 94%. Also, the Activity in experiment [2] was 83%; in experiment [3], 45%.

With `CC(C)(O)[C@H]1CC[C@@](C)([C@H]2CC[C@]3(C)[C@@H]2[C@H](O)C[C@@H]2[C@@]4(C)CC[C@H](NC(=O)[C@H]5C[C@@H](O)CN5)C(C)(C)[C@@H]4CC[C@]23C)O1`, the viability at 10 µM in experiment [1] came to 98%. Moreover, the values for the Activity in experiment [2] and in experiment [3] were 95% and 98%, respectively.

Take `C[S+](C)[O-]` [DIMETHYL SULFOXIDE]: the viability at 10 µM in experiment [1] was determined as 100%. The Activity in experiment [2] and in experiment [3] was 100% throughout.

Regarding `CC(C)(O)[C@H]1CC[C@@](C)([C@H]2CC[C@]3(C)[C@@H]2[C@H](O)C[C@@H]2[C@@]4(C)CC[C@H](NC(=O)CC5CNC5)C(C)(C)[C@@H]4CC[C@]23C)O1`, the viability at 10 µM in experiment [1] was 96%. In addition, the Activity is given as 95% in experiment [2] and 90% in experiment [3].

As to `CC1(C(=O)N[C@H]2CC[C@]3(C)[C@H]4C[C@@H](O)[C@@H]5[C@@H]([C@]6(C)CC[C@H](C(C)(C)O)O6)CC[C@@]5(C)[C@]4(C)CC[C@H]3C2(C)C)COC1`, in experiment [1], the viability at 10 µM was 84%. In addition, the Activity in experiment [2] is recorded as 59%; in experiment [3], 50%.

As to `CC(C)(O)[C@H]1CC[C@@](C)([C@H]2CC[C@]3(C)[C@@H]2[C@H](O)C[C@@H]2[C@@]4(C)CC[C@H](NC(=O)[C@@H]5COCCN5)C(C)(C)[C@@H]4CC[C@]23C)O1`, the viability at 10 µM in experiment [1] was found to be 89%. For the same molecule, the Activity is reported as 82% in experiment [2] and 57% in experiment [3].

As to `CC(C)(C)OC(=O)N1CCOC[C@H]1C(=O)N[C@H]1CC[C@]2(C)[C@H]3C[C@@H](O)[C@@H]4[C@@H]([C@]5(C)CC[C@H](C(C)(C)O)O5)CC[C@@]4(C)[C@]3(C)CC[C@H]2C1(C)C`, the viability at 10 µM in experiment [1] was 89%. The Activity in experiment [2] is recorded as 81%; in experiment [3], 55%.

Consider `CC(C)(O)[C@H]1CC[C@@](C)([C@H]2CC[C@]3(C)[C@@H]2[C@H](O)C[C@@H]2[C@@]4(C)CC[C@H](NC(=O)[C@@H]5CCC(=O)O5)C(C)(C)[C@@H]4CC[C@]23C)O1`, for which, in experiment [1], the viability at 10 µM was 104%. The figures for the Activity in experiment [2] and in experiment [3] were 95% and 94%, respectively.

Consider `CC(C)(O)[C@H]1CC[C@@](C)([C@H]2CC[C@]3(C)[C@@H]2[C@H](O)C[C@@H]2[C@@]4(C)CC[C@H](NC(=O)[C@@H]5CCNC5)C(C)(C)[C@@H]4CC[C@]23C)O1`, for which, in experiment [1], the viability at 10 µM was 99%. For the same molecule, the Activity in experiment [2] came to 67%; in experiment [3], 49%.

Turning to `CC(C)(O)[C@H]1CC[C@@](C)([C@H]2CC[C@]3(C)[C@@H]2[C@H](O)C[C@@H]2[C@@]4(C)CC[C@H](NC(=O)[C@H]5CCN5)C(C)(C)[C@@H]4CC[C@]23C)O1`, the viability at 10 µM in experiment [1] was determined as 70%. Further, the Activity was found to be 86% in experiment [2] and 68% in experiment [3].

As for `CC(C)(C)OC(=O)N1CC(F)(F)C[C@H]1C(=O)N[C@H]1CC[C@]2(C)[C@H]3C[C@@H](O)[C@@H]4[C@@H]([C@]5(C)CC[C@H](C(C)(C)O)O5)CC[C@@]4(C)[C@]3(C)CC[C@H]2C1(C)C`, in experiment [1], the viability at 10 µM stood at 100%. Also, the Activity in experiment [2] was found to be 65%; in experiment [3] it was 64%.

For the molecule `CC(C)(O)[C@H]1CC[C@@](C)([C@H]2CC[C@]3(C)[C@@H]2[C@H](O)C[C@@H]2[C@@]4(C)CC[C@H](NC(=O)[C@@H]5C[C@@H](F)CN5)C(C)(C)[C@@H]4CC[C@]23C)O1`, in experiment [1], the viability at 10 µM worked out at 99%. Besides, the Activity was determined as 78% in experiment [2] and 66% in experiment [3].

On to `CC(C)(O)[C@H]1CC[C@@](C)([C@H]2CC[C@]3(C)[C@@H]2[C@H](O)C[C@@H]2[C@@]4(C)CC[C@H](NC(=O)C5CNC5)C(C)(C)[C@@H]4CC[C@]23C)O1`, for which the viability at 10 µM in experiment [1] was determined as 97%. The Activity came to 76% in experiment [2] and 61% in experiment [3].

In the case of `CC(C)(C)OC(=O)N1C[C@H](O)C[C@H]1C(=O)N[C@H]1CC[C@]2(C)[C@H]3C[C@@H](O)[C@@H]4[C@@H]([C@]5(C)CC[C@H](C(C)(C)O)O5)CC[C@@]4(C)[C@]3(C)CC[C@H]2C1(C)C`, the viability at 10 µM in experiment [1] was 105%. Also, the Activity in experiment [2] worked out at 90%; in experiment [3], 93%.

With `CC(C)(O)[C@H]1CC[C@@](C)([C@H]2CC[C@]3(C)[C@@H]2[C@H](O)C[C@@H]2[C@@]4(C)CC[C@H](NC(=O)[C@H]5CCCN5)C(C)(C)[C@@H]4CC[C@]23C)O1`, the viability at 10 µM in experiment [1] was found to be 109%. Besides, the Activity was found to be 73% in experiment [2] and 63% in experiment [3].

Turning to `CC(C)(C)OC(=O)N1CCCC[C@@H]1C(=O)N[C@H]1CC[C@]2(C)[C@H]3C[C@@H](O)[C@@H]4[C@@H]([C@]5(C)CC[C@H](C(C)(C)O)O5)CC[C@@]4(C)[C@]3(C)CC[C@H]2C1(C)C`, in experiment [1], the viability at 10 µM turned out to be 118%. Besides, the Activity in experiment [2] is on record as 42%; in experiment [3], 27%.

Consider `CC(C)(O)[C@H]1CC[C@@](C)([C@H]2CC[C@]3(C)[C@@H]2[C@H](O)C[C@@H]2[C@@]4(C)CC[C@H](NC(=O)[C@@H]5CC(F)(F)CN5)C(C)(C)[C@@H]4CC[C@]23C)O1`, for which, in experiment [1], the viability at 10 µM was found to be 95%. Besides, the Activity in experiment [2] came out at 78%; in experiment [3], 62%.

For `CC(C)(C)OC(=O)N1CCC[C@H](C(=O)N[C@H]2CC[C@]3(C)[C@H]4C[C@@H](O)[C@@H]5[C@@H]([C@]6(C)CC[C@H](C(C)(C)O)O6)CC[C@@]5(C)[C@]4(C)CC[C@H]3C2(C)C)C1`, the viability at 10 µM in experiment [1] amounted to 93%. Also, the Activity worked out at 76% in experiment [2] and 47% in experiment [3].
